We go through one molecule from patent US20150353982A1, “MICRO-EVOLUTION OF MICROBES” (priority 2012, published 2015).

In data set [1] the test system is Arthrospira platensis (CCMP1295). Kind of data set: Toxicology assay over 72 hours (BS EN ISO 10253:2006), reduction in specific growth rate. In kind it is cell-based. The procedure: Toxicology assays and EC50 calculations for copper were performed on Arthrospira platensis (CCMP1295). Assessments were performed under aseptic conditions in 2 stages through an initial range-finding assay (data not shown) using CuSO4 solutions to detect the region of the EC50, followed by a final toxicology assay over 72 hours following British Standard BS EN ISO 10253:2006 [15] with ECso determination where inhibition is measured as a reduction in specific growth rate, relative to control cultures grown under identical conditions. Visual analysis was also performed to assess the effects of metal toxicity on morphology. Statistical analysis was performed using GraphPad Prism 5 Non-linear transform log(agonist) vs. response—variable response function.
FIGS. 4A and 4B show the results of the toxicity assay using A. platensis. EC50 of Cu^2+ ions for A. platensis was calculated at 0.2976 (in the 95% CI range of 0.17-0.5208 mg/L with an R squared value of 0.8654).

In another data set the test system is A. platensis. The data set can be described thus: Micro-evolution exposure (60 days) with fluctuation analysis. The data set is classed as cell-based, Arthrospira platensis. From the text: The result from the fluctuation analysis after the selected period can explain the presence of resistant cells in two ways. Each result is interpreted as the independent consequence of two different phenomena of adaptation. In the first case, if resistant cells arose during the exposure to the selective agent (that is, by physiological adaptation), the variance in the number of cells per culture would be low because every cell is likely to have the same chance of developing resistance (set 1A; FIG. 3). Consequently, inter-culture (tube-to-tube) variation would be consistent with the Poisson model (that is, the variance of these replicate samples would be equal to the mean). By contrast, if resistant cells arose before the exposure to the selective agent (that is, genetic adaptation by rare spontaneous mutation occurring during the time in which the cultures grew from N0 to Nt), a high variation in the number of resistant cells per culture would be found (set 1B; FIG. 3). The tube-to-tube variation would not be consistent with the Poisson model (that is, variance>mean). Fluctuation analysis can likewise show the possibility of no adaptation if no resistant cells are observed after the incubation period in any of the experimental cultures. Since set 2 is the control of the experiment, variation is due only to random sampling and variation from tube to tube would be consistent with the Poisson model. […] If a similar variance: mean ratio between set 1 and set 2 is found, it confirms that resistant cells arose during the exposure to the selecting agent (that is, a post-selective mechanism).
FIG. 2 illustrates a typical outline of the micro-evolution process. The experiment was performed based on the method from Gonzalez et al., (2012). Following FIG. 2, the culture was cloned through the isolation of a single alga or cyanobacterium, to avoid the inclusion of previous spontaneous mutations, followed by growth. Cloning was performed through microdilution in microwell plates, where the culture was diluted to the culture density of 1 microbe (micro-organism, MO) per 200 μl, providing a single cell in each well (although if microalgae/cyanobacteria can grow on solid medium, isolation on medium agar can also be performed). Propagation of the cloned culture was performed from 200 μl in increasing volume flasks with foam stoppers in a constant temperature room 18° C.+/−1° C., average light intensity 2800 lux with 8:16 dark:light cycle.
10e2 MOs were then subcultured into 10 ml 40 vials (set 1), and cultures propagated further in vials and propagation flask (for set 2) (FIG. 3). Before exposure, controls ‘set 2’ were prepared through subculturing from flask into 20 vials. During the exposure stage, CuSO4 solution was added to the 60 vials of each concentration set to make-up the final concentrations of 0.3, 0.6, 1, 2 and 4 mg/Cu^2+ ions. Vials were stored under propagation conditions described above for a period of 60 days, with daily agitation, ensuring resistant cells could generate enough progeny to be detected. After the incubation period, fluctuation analysis was performed to identify those cultures which resistance arose through microevolution.

SMILES strings stand for the structures.

The term EC50 denotes the concentration that produces a half-maximal response. Higher therefore signals weaker potency. With `O=S(=O)([O-])[O-].[Cu+2]` [Cu^2+ ions, CuSO4], the “morphological changes (microscope)” value in data set [1] (1 mg/L Cu2+, after 24 hour) is “fragmentation of the trichomes”. The EC50 in data set [1] (72 hours, CuSO4 solutions, 95% CI 0.17-0.5208 mg/L, R squared 0.8654) is 0.2976 µg/mL. The Outcome result in the data set with A. platensis (0.3 mg/L Cu^2+ ion concentration) is listed as “RSM”; in the data set on A. platensis (0.6 mg/L Cu^2+ ion concentration), “RSM”; in the data set with A. platensis (1 mg/L Cu^2+ ion concentration) it was “No adaptation”; with A. platensis (2 mg/L Cu^2+ ion concentration), “No adaptation”; in the data set on A. platensis (4 mg/L Cu^2+ ion concentration), “No adaptation”.
